Read-outs that look alike come from different tables or passages of the source.
Assays:
[1] = tested on: HCV replicon 1a Y93H; test: Cell-based HCV replicon assay (TaqMan), genotype 1a Y93H mutant replicon; conditions: Hepatitis C virus, 72 h, read-out: 1a Y93H EC90, HCV 1a Y93H mutant replicon cells, replicon RNA by TaqMan on day 3; EC90 = concentration for ΔCT=3.2 over baseline
Experimental: (§1) Measurement of inhibition by compounds of the present invention was performed using the HCV replicon system. Several different replicons encoding different HCV genotypes or mutations were used. In addition, potency measurements were made using different formats of the replicon assay, including different ways of measurements and different plating formats. See Jan M. Vrolijk et al., A replicons-based bioassay for the measurement of interferons in patients with chronic hepatitis C, 110 J. VIROLOGICAL METHODS 201 (2003); Steven S. Carroll et al., Inhibition of Hepatitis C Virus RNA Replication by 2′-Modified Nucleoside Analogs, 278(14) J. BIOLOGICAL CHEMISTRY 11979 (2003). However, the underlying principles are common to all of these determinations, and are outlined below.
(§2) Compounds of the present invention were assayed for cell-based anti-HCV activity using the following protocol. Replicon cells were seeded at 5000 cells/well in 96-well collagen I-coated Nunc plates in the presence of the test compound. Various concentrations of test compound, typically in 10 serial 2-fold dilutions, were added to the assay mixture, with the starting concentration ranging from 250 μM to 1 μM. The final concentration of DMSO was 0.5%, fetal bovine serum was 5%, in the assay media. Cells were harvested on day 3 by the addition of 1× cell lysis buffer (Ambion cat #8721). The replicon RNA level was measured using real time PCR (TaqMan® assay). The amplicon was located in 5B. The PCR primers were: 5B.2F, ATGGACAGGCGCCCTGA (SEQ. ID NO. 1); 5B.2R, […] (SEQ. ID NO. 2); the probe sequence was FAM-labeled CACGCCATGCGCTGCGG (SEQ. ID NO. 3). GAPDH RNA was used as endogenous control and was amplified in the same reaction as NS5B (multiplex PCR) using primers and VIC-labeled probe recommended by the manufacturer (PE Applied Biosystem). The real-time […] reactions were run on ABI PRISM 7900HT Sequence Detection System using the following program: 48° C. for 30 minutes, 95° C. for 10 minutes, 40 cycles of 95° C. for 15 sec, 60° C. for 1 minute. The ACT values (CT5B-CTGAPDH) were plotted against the concentration of test compound and fitted to the sigmoid dose-response model using XLfit4 (MDL). EC50 was defined as the concentration of inhibitor necessary to achieve ΔCT=1 over the projected baseline; EC90 the concentration necessary to achieve ΔCT=3.2 over the baseline. Alternatively, to quantitate the absolute amount of replicon RNA, a standard curve was established by including serially diluted T7 transcripts of replicon RNA in the Taqman assay. All TaqMan® reagents were from PE Applied Biosystems. Such an assay procedure was described in detail in e.g. Malcolm et al., Antimicrobial Agents and Chemotherapy 50: 1013-1020 (2006).
(§3) HCV replicon EC50 assay data for various replicons and mutants was calculated for selected compounds of the present invention using this method and is provided in the tables above herein.

[2] = tested on: HCV replicon 1a; test: Cell-based HCV replicon assay (TaqMan), genotype 1a replicon; conditions: HCV 1a replicon cells, replicon RNA by TaqMan on day 3, EC90 = concentration for ΔCT=3.2 over baseline
Experimental: as §1, §2, §3

[3] = tested on: HCV replicon 2b; test: Cell-based HCV replicon assay (TaqMan), genotype 2b replicon; conditions: EC90 = concentration for ΔCT=3.2 over baseline
Experimental: as §1, §2, §3

[4] = tested on: HCV replicon 1b; test: Cell-based HCV replicon assay (TaqMan), genotype 1b replicon; conditions: HCV 1b replicon cells, replicon RNA by TaqMan on day 3, EC90 = concentration for ΔCT=3.2 over baseline
Experimental: as §1, §2, §3

[5] = Hepatitis C virus, 72 h, read-out: 2b EC90, HCV 2b replicon cells, replicon RNA by TaqMan on day 3

Structure (SMILES)	EC90 [1]	EC90 ([2]; Hepatitis C virus, 72 h)	EC90 [3, 5]	EC90 ([4]; Hepatitis C virus, 72 h)	EC90 [2]	EC90 ([3]; read-out: 2b EC90, HCV 2b replicon cells, replicon RNA by TaqMan on day 3)	EC90 [4]
COC(=O)N[C@@H](Cc1ccccc1)C(=O)N1CCC[C@H]1c1ncc(-c2ccc(-c3ccc(-c4cnc([C@@H]5C[Si](C)(C)CN5C(=O)[C@H](Cc5ccccc5)NC(=O)OC)[nH]4)cc3)cc2)[nH]1 [Compound 13]	1000 nM	29.8 nM	1000 nM	923 nM	–	–	–
COC(=O)N[C@@H](Cn1cccn1)C(=O)N1CCC[C@H]1c1ncc(-c2ccc(-c3ccc(-c4cnc([C@@H]5C[Si](C)(C)CN5C(=O)[C@H](Cn5cccn5)NC(=O)OC)[nH]4)cc3)cc2)[nH]1 [Compound 29]	1000 nM	5.32 nM	861 nM	139 nM	–	–	–
CCS(=O)(=O)N1CCC(NC(=O)c2ccc(-c3ccc(-c4cnc([C@@H]5C[Si](C)(C)CN5C(=O)[C@@H](NC(=O)OC)C(C)C)[nH]4)cc3)cc2)CC1 [Compound 75]	> 1000 nM	159 nM	> 1000 nM	0.028 nM	–	–	–
COC(=O)N[C@H](Cc1c[nH]c2ccccc12)C(=O)N1CCC[C@H]1c1ncc(-c2ccc(-c3ccc(-c4cnc([C@@H]5C[Si](C)(C)CN5C(=O)[C@@H](Cc5c[nH]c6ccccc56)NC(=O)OC)[nH]4)cc3)cc2)[nH]1 [Compound 16]	500 nM	1000 nM	1000 nM	1000 nM	–	–	–
COC(=O)N[C@@H](C)C(=O)N1C[Si](C)(C)C[C@H]1c1nc(Cl)c(-c2ccc(-c3ccc(-c4[nH]c([C@@H]5C[C@H]6C[C@H]6N5C(=O)[C@H](C)NC(=O)OC)nc4Cl)cc3)cc2)[nH]1 [Compound 52]	9.5 nM	0.021 nM	57 nM	0.007 nM	–	–	–
COC(=O)N[C@H](C(=O)N1C[Si](C)(C)C[C@H]1c1nc(Cl)c(-c2ccc(-c3ccc(-c4[nH]c([C@@H]5C[C@H]6C[C@H]6N5C(=O)[C@@H](NC(=O)OC)C5CC5)nc4Cl)cc3)cc2)[nH]1)C1CC1 [Compound 53]	26.8 nM	0.01 nM	11.3 nM	0.01 nM	–	–	–
CC[C@H](NC(=O)OC)C(=O)N1CCC[C@H]1c1ncc(-c2ccc(-c3ccc(-c4cnc([C@@H]5C[Si](C)(C)CN5C(=O)[C@H](CC)NC(=O)OC)[nH]4)cc3)cc2)[nH]1 [Compound 12]	694 nM	0.187 nM	535 nM	18.1 nM	–	–	–
COC(=O)N[C@H](C(=O)N1C[C@H](F)C[C@H]1c1ncc(-c2ccc(C#Cc3ccc(-c4cnc([C@@H]5C[Si](C)(C)CN5C(=O)[C@@H](NC(=O)OC)C(C)OC)[nH]4)cc3)cc2)[nH]1)C(C)C (some centres unmarked) [Compound 59]	> 100 nM	> 1 nM	> 100 nM	0.02 nM	–	–	–
COC(=O)N[C@@H](Cc1cccc(O)c1)C(=O)N1CCC[C@H]1c1ncc(-c2ccc(-c3ccc(-c4cnc([C@@H]5C[Si](C)(C)CN5C(=O)[C@H](Cc5cccc(O)c5)NC(=O)OC)[nH]4)cc3)cc2)[nH]1 [Compound 26]	1000 nM	11.5 nM	1000 nM	387 nM	–	–	–
COC(=O)N[C@H](C(=O)N1CCC[C@H]1C(=O)Nc1n[nH]c2ccc(-c3ccc(-c4cnc([C@@H]5C[Si](C)(C)CN5C(=O)[C@@H](NC(=O)OC)C(C)C)[nH]4)cc3)cc12)C(C)C [Compound 79]	> 100 nM	> 1 nM	> 100 nM	> 1 nM	–	–	–
COC(=O)N[C@@H](Cc1c[nH]c2ccccc12)C(=O)N1CCC[C@H]1c1ncc(-c2ccc(-c3ccc(-c4cnc([C@@H]5C[Si](C)(C)CN5C(=O)[C@H](Cc5c[nH]c6ccccc56)NC(=O)OC)[nH]4)cc3)cc2)[nH]1 [Compound 17]	1000 nM	9.36 nM	1000 nM	1000 nM	–	–	–
COC(=O)N[C@H](C(=O)N1C[Si](C)(C)C[C@H]1c1nc(Cl)c(-c2ccc(-c3ccc(-c4[nH]c([C@@H]5C[C@H]6C[C@H]6N5C(=O)[C@@H](NC(=O)OC)C(C)C)nc4F)cc3)cc2)[nH]1)C(C)C [Compound 45]	144 nM	0.13 nM	66 nM	0.017 nM	–	–	–
COC(=O)N[C@H](C(=O)N1C[Si](C)(C)C[C@H]1c1ncc(-c2ccc(-c3ccc(-c4ncc([C@@H]5C[C@H]6C[C@H]6N5C(=O)[C@@H](NC(=O)OC)C(C)C)[nH]4)cc3)cc2)[nH]1)C(C)C [Compound 69]	> 100 nM	0.84 nM	371 nM	0.019 nM	–	–	–
CC[C@H](C)[C@H](NC(=O)OC)C(=O)N1CCC[C@H]1c1ncc(-c2ccc(-c3ccc(-c4cnc([C@@H]5C[Si](C)(C)CN5C(=O)[C@@H](NC(=O)OC)[C@@H](C)CC)[nH]4)cc3)cc2)[nH]1 [Compound 14]	1000 nM	–	–	–	3.22 nM	1000 nM	23.8 nM
CCC[C@H](NC(=O)OC)C(=O)N1CCC[C@H]1c1ncc(-c2ccc(-c3ccc(-c4cnc([C@@H]5C[Si](C)(C)CN5C(=O)[C@H](CCC)NC(=O)OC)[nH]4)cc3)cc2)[nH]1 [Compound 15]	542 nM	2.43 nM	515 nM	45.8 nM	–	–	–
COC(=O)N[C@@H](Cc1cn(C)cn1)C(=O)N1CCC[C@H]1c1ncc(-c2ccc(-c3ccc(-c4cnc([C@@H]5C[Si](C)(C)CN5C(=O)[C@H](Cc5cn(C)cn5)NC(=O)OC)[nH]4)cc3)cc2)[nH]1 [Compound 28]	1000 nM	11.9 nM	1000 nM	282 nM	–	–	–
COC(=O)N[C@H](C(=O)N1C[C@H](F)C[C@H]1c1ncc(-c2ccc(C#Cc3ccc(-c4cnc([C@@H]5C[Si](C)(C)CN5C(=O)[C@@H](NC(=O)OC)C(C)C)[nH]4)cc3)cc2)[nH]1)C(C)C [Compound 58]	> 100 nM	> 1 nM	> 100 nM	0.03 nM	–	–	–
CCN(CC)[C@@H](C(=O)N1C[Si](C)(C)C[C@H]1c1nc(Cl)c(-c2ccc(-c3ccc(-c4[nH]c([C@@H]5C[C@H]6C[C@H]6N5C(=O)[C@@H](c5ccccc5)N(CC)CC)nc4Cl)cc3)cc2)[nH]1)c1ccccc1 [Compound 55]	16.4 nM	0.047 nM	0.16 nM	0.019 nM	–	–	–
COC(=O)N[C@H](C(=O)N1CCC[C@@H]1c1ncc(-c2ccc(-c3ccc(-c4cnc([C@H]5C[Si](C)(C)CN5C(=O)[C@@H](NC(=O)OC)C5CC5)[nH]4)cc3)cc2)[nH]1)C1CC1 [Compound 22]	1000 nM	1000 nM	1000 nM	1000 nM	–	–	–
COC(=O)N[C@H](C(=O)N1CCC[C@H]1c1nc(Cl)c(-c2ccc(-c3ccc(-c4[nH]c([C@@H]5C[Si](C)(C)CN5C(=O)[C@@H](NC(=O)OC)C(C)C)nc4Cl)cc3)cc2)[nH]1)C(C)C [Compound 41]	189 nM	0.26 nM	100 nM	217 nM	–	–	–

— patent US20140378416A1, “SILYL-CONTAINING HETEROCYCLIC COMPOUNDS AND METHODS OF USE THEREOF FOR THE TREATMENT OF VIRAL DISEASES” (priority 2011, published 2014)
